What was measured:
HSV-1 = experiment: In vitro assay for anti-HSV-1 mRNA activity (QuantiGene Plex 2.0 bDNA) in infected primary endothelial cells; assay type: cell-based, HSV type 1; conditions: best-fit value, primary Adult Human Dermal Microvascular Endothelial Cells, overnight incubation; for IC50: Human alphaherpesvirus 1, Endothelial cell, HSV-1 mRNA; for LogIC50 / HillSlope: variable slope fit; for LogIC50: concentrations in µM
Method: (§1) In vitro assays for anti-HSV-1 and anti-HSV-2 mRNA activity are described in Example 1. Confluent Vero cell monolayers were infected with HSV type 1 or HSV type 2 at a multiplicity of infection of 10 and the resultant virus was used to infect primary Adult Human Dermal Microvascular Endothelial Cells for 1 hour; the supernatant was replaced with fresh culture media and then incubated overnight in the presence of various concentrations of acyclovir, 2-deoxy-D-glucose or an equimolar combination of the two compounds. After overnight incubation, the cells were harvested, lysed, and subjected to QuantiGene Plex 2.0 assay (Panomics, Inc., Fremont, CA) for quantitative assay of HSV-1 and HSV-2 mRNA. The QuantiGene Plex 2.0 assay combines branched DNA (bDNA) signal amplification and multi-analyte profiling beads (xMAP®) technologies to enable the detection and quantitation of multiple mRNA targets simultaneously. Briefly, confluent Vero cell monolayers were infected with HSV type 1 or HSV type 2 at a multiplicity of infection of 10 and the resultant virus was used to infect primary Adult Human Dermal Microvascular Endothelial Cells for 1 hour and then the supernatant was replaced with fresh culture media and then incubated overnight in the presence of various concentrations of acyclovir, 2-deoxy-D-glucose or an equimolar combination of the two compounds. Generally, this assay is considered to be a more sensitive and specific assay (bDNA) for the final readout when compared to an ELISA. The ELISA method while easier, can lack specificity to determine the difference between HSV1 and HSV2. The bDNA assay is a hybridization-based method of target-specific RNA quantitation that amplifies signal rather than target RNA, using labeled DNA probes. The QuantiGene Plex 2.0 system utilizes fluorescent microspheres (Capture Beads) as a support to capture specific RNA molecules. The ability to quantify multiple target-specific RNA molecules in a single sample lies in the design of the Probe Sets. For each RNA molecule of interest, an oligonucleotide Probe Set containing three types of synthetic probes, Capture Extenders (CEs), Label Extenders (LEs), and Blockers (BLs) that hybridize and span contiguous sequences of the target RNA, is provided. The CEs discriminate among the different Capture Beads within the bead array while capturing, via cooperative hybridization, the target RNA. Signal amplification is mediated by DNA amplification molecules that hybridize to the tails of the LEs. Each amplification unit contains multiple hybridization sites for biotinylated Label Probes that bind Streptavidin-conjugated R-Phycoerythrin (SAPE). The resulting fluorescence signal associated with individual Capture Beads is read on a Luminex flow cytometer. Signal is reported as median fluorescence intensity (MFI) and is proportional to the number of target RNA molecules present in the sample. All compounds were run in triplicate for each concentration. Concentrations are expressed in micromolar (µM) concentrations. The IC50 (the drug concentration that reduces the number of virally infected cells by 50%) were determined by plotting the reduction in fluorescence (RLU) versus the drug concentration using Graph Pad Prism software. Specifically, the variable slope model was used to calculate the IC50s with the formula "Y=Bottom + (Top-Bottom)/(1+10^((LogIC50-X)*HillSlope))" using Graph Pad Prism software. The data is shown graphically in Figures 1 and 2. The error bars represent the standard error of the mean (SEM). Table 1. IC50 of Acyclovir and/or 2-Deoxy-D-glucose against HSV-1. […]

HSV-2 = experiment: In vitro assay for anti-HSV-2 mRNA activity (QuantiGene Plex 2.0 bDNA) in infected primary endothelial cells; assay type: cell-based, HSV type 2; conditions: best-fit value, primary Adult Human Dermal Microvascular Endothelial Cells, overnight incubation; for IC50: Human alphaherpesvirus 2, Endothelial cell, HSV-2 mRNA; for LogIC50 / HillSlope: variable slope fit; for LogIC50: concentrations in µM
Method: as §1

[1] = local application compared with oral; cited from earlier work

| IC50 (HSV-1) [µM] | IC50 (HSV-2) [µM] | Compound | LogIC50 (HSV-1) | HillSlope (HSV-1) | LogIC50 (HSV-2) | HillSlope (HSV-2) | drug concentration in the skin after local application versus given orally [1] |
| --- | --- | --- | --- | --- | --- | --- | --- |
| 20.9 | 8 | O=CC[C@@H](O)[C@H](O)[C@H](O)CO [2 Deoxy D glucose, 2-deoxy-D-glucose] | 1.32 | -2.395 | 0.9029 | -3.957 |  |
| 1.78 | 1.91 | Nc1nc2c(ncn2COCCO)c(=O)[nH]1 [Acyclovir, 9-(2-hydroxyethoxymethyl)guanine] | 0.2509 | -1.108 | 0.2805 | -1.113 | 2-3 times lower |

— EP2782585B1, “ANTIVIRAL FORMULATIONS” (3B Pharmaceuticals, Inc., priority 2011, dated 2013)
